# From article PMC5354670, “Blockade of the malignant phenotype by β-subunit selective noncovalent inhibition of immuno- and constitutive proteasomes” (Oncotarget, 2017)
# Experiments:
# [1] = biological target: human 20S immunoproteasome iCP, PA activity (β1) (Homo sapiens, UniProt P28065); test: Inhibition of PA activity of human iCP (substrate Z-LLE-βNA); conditions: for inhibition at 50 µM: pH 8, read-out: % inhibition at 50 μM PA, iCP; for ratio cCP/iCP, PA activity: IC50 cCP / IC50 iCP
# Experimental: (§7) They were assayed for in vitro inhibition of purified human cCP and iCP by measuring the hydrolysis of the β5 (ChT-L) substrate Suc-LLVY-AMC, β1 (PA) substrate Z-LLE-βNA, and β2 (T-L) substrate Boc-LRR-AMC in the presence of various concentrations of the tested molecules.
# (§8) The experimental data are adjusted to equation 1 (c) or equation 2 (a, a’, b, b’, c’).
# (§9) Purified human constitutive 20S proteasome cCP and human 20S immunoproteasome iCP from erythrocyte were obtained from Boston Biochem (Cambridge, USA). All fluorogenic substrates (Suc-LLVY-AMC, Boc-LRR-AMC, and Z-LLE-βNA) were obtained from Bachem (Weil am Rhein, Germany). […] Fluorescence was measured using a BMG Fluostar microplate reader (black 96-well microplates).
# (§10) Substrates and compounds were previously dissolved in DMSO. The buffers were (pH 8.0): 20 mM Tris, 10% (v/v) glycerol, 0.01% (w/v) SDS, and 2% (v/v) DMSO (ChT-L and PA activities); 20 mM Tris, 10% (v/v) glycerol, 0.01% (w/v). The final iPR and cPR concentrations were 0.3 nM using 20 μM Suc-LLVY-AMC (ChT-L), 50 μM Boc-LRR-AMC (T-L) and 100 μM Z-LLE-βNA (PA). […] The enzyme and the inhibitors were incubated for 15 min before the measurement of the enzyme activity. Initial rates determined in control experiments (V0) were considered to be 100 % of the peptidase activity; initial rates (Vi) that were above 100 % in the presence of a tested compound were considered to be activations (expressed as activation factor), while initial rates below 100 % were considered to be inhibitions. […] The values of IC50 were calculated by fitting the experimental data to the equation 1 or equation 2, where nH is the Hill number.
# [2] = biological target: human constitutive 20S proteasome cCP, PA activity (β1) (Homo sapiens, UniProt P28072); test: Inhibition of PA activity of human cCP (substrate Z-LLE-βNA); conditions: for inhibition at 50 µM: pH 8, read-out: % inhibition at 50 μM PA, cCP
# Experimental: as §7, §8, §9, §10
# [3] = biological target: human constitutive 20S proteasome cCP, ChT-L activity (β5) (Homo sapiens, UniProt P28074); test: Inhibition of ChT-L activity of human cCP (substrate Suc-LLVY-AMC); conditions: for inhibition at 50 µM: pH 8, read-out: % inhibition at 50 μM ChT-L, cCP; for factor by which ChT-L activity of cCP is more efficiently inhibited than PA: PA vs ChT-L
# Experimental: as §7, §8, §9, §10
# [4] = biological target: human 20S immunoproteasome iCP, ChT-L activity (β5) (Homo sapiens, UniProt P28062); test: Inhibition of ChT-L activity of human iCP (substrate Suc-LLVY-AMC); conditions: for inhibition at 50 µM: pH 8, read-out: % inhibition at 50 μM ChT-L, iCP; for ratio cCP/iCP, ChT-L activity: IC50 cCP / IC50 iCP
# Experimental: as §7, §8, §9, §10
# [5] = biological target: human 20S immunoproteasome iCP, T-L activity (β2) (Homo sapiens, UniProt P40306); test: Inhibition of T-L activity of human iCP (substrate Boc-LRR-AMC); conditions: for fold induction at 50 µM: pH 8, read-out: x (activation factor) at 50 μM T-L, iCP
# Experimental: We decided to explore further their properties by testing their potential to inhibit human iCP versus cCP. They were assayed for in vitro inhibition of purified human cCP and iCP by measuring the hydrolysis of the β5 (ChT-L) substrate Suc-LLVY-AMC, β1 (PA) substrate Z-LLE-βNA, and β2 (T-L) substrate Boc-LRR-AMC in the presence of various concentrations of the tested molecules.
# as §8
# Purified human constitutive 20S proteasome cCP and human 20S immunoproteasome iCP from erythrocyte were obtained from Boston Biochem (Cambridge, USA). All fluorogenic substrates (Suc-LLVY-AMC, Boc-LRR-AMC, and Z-LLE-βNA) were obtained from Bachem (Weil am Rhein, Germany). Other reagents and solvents were purchased from commercial sources. Fluorescence was measured using a BMG Fluostar microplate reader (black 96-well microplates).
# as §10
# [6] = biological target: human constitutive 20S proteasome cCP, T-L activity (β2) (Homo sapiens, UniProt Q99436); test: Inhibition of T-L activity of human cCP (substrate Boc-LRR-AMC); conditions: for fold induction at 50 µM: pH 8, read-out: x (activation factor) at 50 μM T-L, cCP; for inhibition at 50 µM: pH 8, read-out: % inhibition at 50 μM T-L, cCP
# Experimental: as §7, §8, §9, §10
# [7] = tested on: MDA-MB-231 cells (breast cancer); test: MTT cell viability assay, MDA-MB-231; format: cell-based; conditions: for cytotoxicity at higher doses: 48 h; for CC50: Homo sapiens, 48 h treatment, MTT, read-out: LC50 (the source's name)
# Experimental: (§1) We first analyzed the cytotoxic effects of B1f and B3 treatment on colon (CT-26) and breast cancer cells (MDA-MB-231 cells) using the MTT cell viability assay. B1f and B3 inhibited the viability of these cells in a dose-dependent manner after 48 h treatment. Higher doses of B1f and B3 lead to 100% cytotoxicity (Figure 4A). […] We next assessed the effect of B1f and B3 on the proliferation of these cells during 24h. […] Similarly, to evaluate whether these inhibitors can affect their invasion, tumor cells were incubated for 24 h in a microchemotaxis chamber pre-coated with collagen IV (Figure 4C) in the presence of the compounds B1f or B3.
# (§2) Figure 4 Effect of compounds B1f and B3 on tumor cell proliferation and invasion A. CT-26 and MDA-MB 231 cells were treated with various concentrations of indicated compounds for 48h and cells viability was measured by MTT assay. B. Tumor cells were serum deprived overnight and then treated for 24 h with control media (None) or media containing compound B3 or B1f. Cell proliferation was assessed using Cell Titer96 non-radioactive cell proliferation assay. Results are shown as means ± S.E. of three experiments performed in triplicate. *P < 0.05. **P < 0.001. *** P < 0.0001. C. Indicated tumor cells were incubated in a microchemotaxis chamber pre-coated with collagen IV for cell invasion assay as described in the Materials and Methods section. The results are represented as the percentage of invading cells. Data are representative of 3 experiments and shown as mean ± S.E. (n=3 per group). **P < 0.001. *** P < 0.0001.
# (§3) For the viability assay, CT-26 (colon cancer) and MDA-MB231 (breast cancer) cells were plated in triplicate on 96 wells plate (5.10^3/well). After treatment with indicated drugs, cells were incubated for 48 hours at 37°C and incubated with solution of 5 mg/ml of 3-(4,5-dimethylthiazol-2-yl)-2,5-diphenyltetrazolium bromide (MTT) tetrazolium substrate (Sigma) for 30 minutes at 37°C prior analysis on a microplate reader at 570. The LC50 value was defined as the drug concentration causing 50% cell death (LD = lethal dose) compared to growth of the untreated control cells. For cell proliferation, cells were plated in triplicate on 96 wells plate (5.10^3/well) under serum free conditions for 24 h. The starved cells were then incubated for 24h with fresh media containing the two selected compounds B1f and B3 that inhibit both ChT-L and PA activities of iCP and cCP. […] Proliferation level in cells was evaluated, as reported previously using the Cell Titer96 non-radioactive cell proliferation assay kit (Promega) according to manufacturer’s protocol
# [8] = tested on: CT-26 cells (colon cancer); test: Cell Titer96 non-radioactive cell proliferation assay, CT-26; format: cell-based; conditions: 10 μM, 24 h, vs control cells
# Experimental: as §1
# (§4) Figure 4 Effect of compounds B1f and B3 on tumor cell proliferation and invasion A. CT-26 and MDA-MB 231 cells were treated with various concentrations of indicated compounds for 48h and cells viability was measured by MTT assay. […] Cell proliferation was assessed using Cell Titer96 non-radioactive cell proliferation assay. […]
# (§5) For the viability assay, CT-26 (colon cancer) and MDA-MB231 (breast cancer) cells were plated in triplicate on 96 wells plate (5.10^3/well). After treatment with indicated drugs, cells were incubated for 48 hours at 37°C and incubated with solution of 5 mg/ml of 3-(4,5-dimethylthiazol-2-yl)-2,5-diphenyltetrazolium bromide (MTT) tetrazolium substrate (Sigma) for 30 minutes at 37°C prior analysis on a microplate reader at 570. […]
# [9] = tested on: MDA-MB-231 cells (breast cancer); test: Cell Titer96 non-radioactive cell proliferation assay, MDA-MB-231; format: cell-based; conditions: 10 μM, 24 h, vs control cells
# Experimental: as §1, §4, §5
# [10] = tested on: CT-26 cells (colon cancer); test: Cell invasion assay, microchemotaxis chamber pre-coated with collagen IV, CT-26; format: cell-based; conditions: 10 μM, 24 h
# Experimental: as §1, §4
# (§6) Cell invasion were determined using 24-well microchemotaxis chambers precoated with 7.5 μg collagen type IV (Becton Dickinson Labware), as previously described. […] Cell invasion were quantified by determination of the number of cells that migrated directly through the membrane toward the medium containing 10% serum that was used as a chemoattractant. […]
# [11] = tested on: MDA-MB-231 cells (breast cancer); test: Cell invasion assay, microchemotaxis chamber pre-coated with collagen IV, MDA-MB-231; format: cell-based; conditions: 10 μM, 24 h
# Experimental: as §1, §4, §6
# [12] = tested on: CT-26 cells (colon cancer); test: MTT cell viability assay, CT-26; format: cell-based; conditions: for cytotoxicity at higher doses: CT-26 cells, 48 h; for CC50: Mus musculus, CT26 cells, 48 h treatment, MTT, read-out: LC50 (the source's name)
# Experimental: as §1, §2, §3
smiles,measurement,setting,value
CC(C)Cc1ccc(S(=O)(=O)N2CCN(c3ccc([N+](=O)[O-])cc3)CC2)cc1 [Compound B1a],inhibition at 50 µM,[1],25%
same,inhibition at 50 µM,[2],< 25%
same,inhibition at 50 µM,[3],< 25%
same,inhibition at 50 µM,[4],< 25%
same,"cCP/iCP ratio for the IC50 values, T-L activity",[5],1.4
same,IC50,[6],10.3 µM
Cc1ccccc1N1CCN(S(=O)(=O)c2ccc(C(C)(C)C)cc2)CC1 [Compound B1b],inhibition at 50 µM,[1],< 25%
same,inhibition at 50 µM,[2],< 25%
same,inhibition at 50 µM,[3],< 25%
same,inhibition at 50 µM,[4],< 25%
same,IC50,[5],2.6 ± 0.4 µM
same,"cCP/iCP ratio for the IC50 values, T-L activity",[5],4.6
same,IC50,[6],12 µM
CC(C)(C)c1ccc(S(=O)(=O)N2CCN(c3ccc(Cl)cc3[N+](=O)[O-])CC2)cc1 [Compound B1c],inhibition at 50 µM,[1],< 25%
same,inhibition at 50 µM,[2],< 25%
same,inhibition at 50 µM,[3],< 25%
same,inhibition at 50 µM,[4],< 25%
same,IC50,[5],3.3 ± 0.4 µM
same,"cCP/iCP ratio for the IC50 values, T-L activity",[5],2.4
same,IC50,[6],8.1 µM
O=[N+]([O-])c1ccc(N2CCN(S(=O)(=O)c3ccc(Cl)cc3)CC2)cc1Sc1ccccn1 [Compound B1d],inhibition at 50 µM,[2],46%
same,inhibition at 50 µM,[3],< 25%
same,fold induction at 50 µM,[6],4.7
Cc1ccc(S(=O)(=O)N2CCN(c3ccc([N+](=O)[O-])c(SCc4ccco4)c3)CC2)cc1 [Compound B1e],IC50,[1],3.3 ± 0.3 µM
same,"ratio cCP/iCP, PA activity",[1],1.3
same,IC50,[2],4.2 µM
same,IC50,[3],2.5 µM
same,factor by which ChT-L activity of cCP is more efficiently inhibited than PA,[3],1.7
same,IC50,[4],5.5 ± 0.3 µM
same,"ratio cCP/iCP, ChT-L activity",[4],0.55
same,fold induction at 50 µM,[5],3
same,inhibition at 50 µM,[6],< 25%
O=[N+]([O-])c1ccc(N2CCN(S(=O)(=O)c3ccc(Cl)cc3)CC2)cc1SCc1ccco1 [Compound B1f],IC50,[1],3.7 ± 0.2 µM
same,"ratio cCP/iCP, PA activity",[1],2
same,IC50,[2],7.4 µM
same,IC50,[3],3.2 µM
same,factor by which ChT-L activity of cCP is more efficiently inhibited than PA,[3],2.3
same,IC50,[4],5.8 ± 0.2 µM
same,"ratio cCP/iCP, ChT-L activity",[4],0.45
same,cytotoxicity at higher doses,[7],100%
same,CC50,[7],45.8 ± 5.2 µM
same,effect on proliferation,[8],significant reduction in their proliferation
same,effect on proliferation,[9],significant reduction in their proliferation
same,effect on invasion,[10],clearly decreased their ability to invade
same,fold induction at 50 µM,[5],3
same,effect on invasion,[11],clearly decreased their ability to invade
same,cytotoxicity at higher doses,[12],100%
same,CC50,[12],24.4 ± 8.6 µM
same,inhibition at 50 µM,[6],< 25%
CC(C)(C)c1ccc(S(=O)(=O)N2CCN(c3ccc([N+](=O)[O-])c(NCc4ccccn4)c3)CC2)cc1 [Compound B1g],IC50,[2],13.9 ± 1.4 µM
same,IC50,[3],24.6 ± 3.5 µM
same,inhibition at 50 µM,[6],< 25%
CC(=O)Nc1ccc(S(=O)(=O)N2CCN(c3ccc([N+](=O)[O-])c(NCCN4CCOCC4)c3)CC2)cc1 [Compound B1h],inhibition at 50 µM,[2],45%
same,inhibition at 50 µM,[6],< 25%
COc1ccc(S(=O)(=O)N2CCN(c3ccc([N+](=O)[O-])c(NCC(C)(C)C)c3)CC2)cc1OC [Compound B1i],inhibition at 50 µM,[2],< 25%
same,inhibition at 50 µM,[3],< 25%
same,inhibition at 50 µM,[6],< 25%
O=[N+]([O-])c1ccc(N2CCN(S(=O)(=O)c3ccc4ccccc4c3)CC2)cc1SCCN1CCOCC1 [Compound B2a],IC50,[2],31.2 ± 1 µM
same,inhibition at 50 µM,[6],< 25%
O=[N+]([O-])c1ccc(N2CCN(S(=O)(=O)c3ccc4ccccc4c3)CC2)cc1 [Compound B2b],inhibition at 50 µM,[2],50%
same,inhibition at 50 µM,[3],58.9%
same,fold induction at 50 µM,[6],4.5
O=C(COc1ccc2ccccc2c1)N1CCN(S(=O)(=O)c2ccc([N+](=O)[O-])cc2)CC1 [Compound B3],IC50,[1],7.1 ± 0.2 µM
same,IC50,[2],8.1 µM
same,IC50,[3],6.5 µM
same,IC50,[4],6.7 ± 0.2 µM
same,cytotoxicity at higher doses,[7],100%
same,CC50,[7],15.4 ± 4.7 µM
same,effect on proliferation,[8],significant reduction in their proliferation
same,effect on proliferation,[9],significant reduction in their proliferation
same,effect on invasion,[10],clearly decreased their ability to invade
same,inhibition at 50 µM,"[5]; pH 8, read-out: % inhibition at 50 μM T-L, iCP",< 25%
same,effect on invasion,[11],clearly decreased their ability to invade
same,cytotoxicity at higher doses,[12],100%
same,CC50,[12],26.4 ± 1.7 µM
same,inhibition at 50 µM,[6],< 25%
O=[N+]([O-])c1ccc(N2CCN(S(=O)(=O)Cc3ccccc3)CC2)cc1NCCN1CCOCC1 [Compound B4],inhibition at 50 µM,[2],< 25%
same,inhibition at 50 µM,[3],< 25%
same,inhibition at 50 µM,[6],< 25%
